Data from ChEMBL document CHEMBL1156829 (Proc Natl Acad Sci U S A, 2008).

What was measured:
Plasmodium falciparum [1] = experiment: NOVARTIS: Inhibition of Plasmodium falciparum W2 (drug-resistant) proliferation in erythrocyte-based infection assay; assay type: functional, organism-based; conditions: Plasmodium falciparum, W2; read-out: EC50
Plasmodium falciparum [2] = experiment: NOVARTIS: Inhibition of Plasmodium falciparum 3D7 (drug-susceptible) proliferation in erythrocyte-based infection assay; assay type: functional, organism-based; conditions: Plasmodium falciparum, 3D7
[3] = NOVARTIS: Cytotoxicity against human hepatocellular carcinoma cell line (Huh7); assay type: toxicity, cell-based, Huh-7; conditions: Huh7 cells (hepatocellular carcinoma cell line)

Structure (SMILES) | EC50 (Plasmodium falciparum [1]) [nM] | EC50 (Plasmodium falciparum [2]) [nM] | CC50 [3] [nM]
CC[C@@H]1CCC[C@H](C)CC[C@@H](O[C@@H]2O[C@@H](C)[C@@H](O)[C@@H](N)[C@H]2O)[C@H](CC)CCCNC1=O | > 1250 | 1580 | > 6250
COCOc1ccc(-c2nc(-c3ccncc3)cnc2N)cc1 | > 1440 | 1430 | > 10000
COc1ccc2cc(C(C)=NO)ccc2c1 | > 5970 | > 12500 | > 100000
CC1=C(CC(=O)c2ccccc2)C(=O)c2ccccc2C1=O | 300 | 2660 | 13800
CC(C)(C)c1cc(Br)cc(C=NNc2ccc([N+](=O)[O-])cc2)c1O | 761 | > 1210 | > 10000
COc1cc(C(=O)/C=C/Nc2ccc(N(C)C)cc2)cc(OC)c1OC | > 1250 | > 1200 | > 10000
O=C(NC(=S)Nc1ccc(NC(=O)c2cccs2)cc1)c1ccco1 | 311 | 468 | > 100000
CCc1ccc(CN2CCC(O)(c3ccc4oc(C(=O)Nc5ccc6c(c5)OCO6)cc4c3)CC2)cc1 | 460 | 359 | 10300
COc1ccc(-n2nc(C(=O)NCC(=O)Nc3nc4ccccc4s3)c3ccccc3c2=O)cc1Cl | > 1130 | > 1250 | > 10000
CC(=O)N(C1=C(N(C)C)C(=O)c2ccccc2C1=O)c1cccc(F)c1 | 10.6 | 13.5 | 1360
Nc1nonc1-n1nnc(-c2ccccc2)c1C(=O)NN=Cc1ccc(F)c(Br)c1 | 119 | 342 | > 100000
CCCC(CCC)C(=O)Nc1ccc2c(c1)N(C(=O)CCCl)c1ccccc1CC2 | 2580 | 416 | > 100000
CCc1c(C)nc2cc(-c3cc(OC)cc(OC)c3)nn2c1NCCCn1ccnc1 | 185 | 2870 | > 100000
COc1ccc(N(C)C(=O)CNC(=O)c2nn(-c3ccc(OC)cc3OC)c(=O)c3ccccc23)cc1 | > 685 | > 1250 | > 10000
Cc1cccc(C)c1N(CC(=O)NCc1ccco1)S(C)(=O)=O | 725 | 851 | > 10000
COc1cc(NCc2cnc(N)nc2N)cc(OC)c1 | 99.2 | 330 | > 10000
O=C(CC1SC(=Nc2ccccc2)NC1=O)Nc1cc(Cl)ccc1Cl (configuration not stated) | > 7080 | > 12500 | > 100000

Structure (SMILES) | EC50 (Plasmodium falciparum [1]) [nM] | EC50 (Plasmodium falciparum [2]) [nM] | CC50 [3] [nM]
CCCCCCCCC(=O)Oc1ccccc1-c1nc2cc(C)ccn2c1NC(C)(C)CC(C)(C)C | 74 | 713 | > 10000
CCC1CC2CCC(O2)C(C)C(=O)OC(C)CC2CCC(O2)C(C)C(=O)OC(CC)CC2CCC(O2)C(C)C(=O)OC(C)CC2CCC(O2)C(C)C(=O)O1 (configuration not stated) | 228 | 162 | 356
CN(C)c1ccc(/C=C2/SC(=Nc3ccccc3)NC2=O)cc1 | 200 | 109 | > 10000
CCCCCCCCCCOC(=O)Cn1c(C)[n+](C)c2ccccc21 | 644 | > 12500 | 58100
COc1cc(C(Nc2ccccn2)c2ccc3cccnc3c2O)cc(Br)c1OC (configuration not stated) | 219 | 368 | > 35000
CCN(CC)C(=O)N1CCN(c2ccc(Nc3ccnc4cc5ccccc5cc34)cc2)CC1 | 2470 | 961 | > 100000
COC(=O)c1cccc(-c2cc(Cl)c3c(c2)CC(CNC(=O)c2c(C)noc2C)O3)c1 (configuration not stated) | 786 | 881 | 75900
COCC(=O)NC(c1ccccc1)c1cc(Cl)c2cccnc2c1O (configuration not stated) | 950 | 1050 | > 10000
COc1ccc(C(=O)C2CC2c2ccc(Cl)cc2)cc1 (configuration not stated) | 1420 | 217 | > 100000
COc1ccc(C2CC(=O)C3=C(C2)NC(C)=C(C(=O)OC(C)C)C3c2cccc(C)c2)cc1OC (configuration not stated) | 19.1 | 82.1 | 54800
COc1ccc(CCn2c(SCC(=O)N3CCN(c4ccccc4OC)CC3)nc3ccccc3c2=O)cc1OC | > 864 | > 1250 | > 10000
CCCC(=O)Oc1ccccc1-c1nc2ccccn2c1NC(C)(C)CC(C)(C)C | 44 | 793 | 1960
CCOC(=O)c1cnc2c(Cl)cccc2c1Nc1cccc(C(C)=O)c1 | 784 | 785 | > 100000
CCCCN(CCCC)CC(O)c1cc(-c2ccc(Cl)cc2)nc2cc(Cl)ccc12 (configuration not stated) | 32.6 | 189 | > 12400
COc1ccc(C=C2SC(=N)N(c3ccccc3OC)C2=O)cc1 | 87.1 | 163 | 62900
CCN(CC)CCNc1ccc(Nc2ccnc3cc4ccccc4cc23)cc1 | 41.7 | 28.2 | 2360
Cc1ccc(S(=O)(=O)c2c(COC(=O)c3cccc(C)c3)c(-c3ccccc3)nn2C)cc1 | 6970 | 8400 | > 100000
